Article PMC6291207 (ChemMedChem, 2018)

Columns and labels:
Aiolos = Aiolos (Homo sapiens, UniProt Q96SW2+Q9UKT9); conditions: for Dmax (maximal degradation achieved), Aiolos: MM1S cells, 24 hours treatment, normalized to tubulin
CRBN = CRBN (Homo sapiens, UniProt Q96SW2); experiment: SPR binding assay with immobilized His-tagged CRBN; conditions: for Kd: read-out: CRBN Kd, surface plasmon resonance, average of at least 2 experiments, errors = standard error of the mean, N.B. = no binding observed
CRBN, sequence (Q96SW2 whole entry): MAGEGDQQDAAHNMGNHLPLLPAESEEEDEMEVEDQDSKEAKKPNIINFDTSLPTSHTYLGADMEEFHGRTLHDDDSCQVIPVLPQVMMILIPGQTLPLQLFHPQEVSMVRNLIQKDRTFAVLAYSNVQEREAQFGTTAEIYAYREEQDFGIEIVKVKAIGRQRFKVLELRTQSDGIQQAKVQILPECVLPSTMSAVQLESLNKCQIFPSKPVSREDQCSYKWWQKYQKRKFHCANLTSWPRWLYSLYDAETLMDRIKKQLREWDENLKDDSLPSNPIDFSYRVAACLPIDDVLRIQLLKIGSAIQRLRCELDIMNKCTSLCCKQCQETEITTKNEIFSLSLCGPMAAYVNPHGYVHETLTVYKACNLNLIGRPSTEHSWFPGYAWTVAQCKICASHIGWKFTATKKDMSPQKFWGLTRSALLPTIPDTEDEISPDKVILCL

MM1S cells = conditions: read-out: IC50 inhibition of cell proliferation, 72 hours, MTS assay

Aiolos, sequence (Q9UKT9 whole entry): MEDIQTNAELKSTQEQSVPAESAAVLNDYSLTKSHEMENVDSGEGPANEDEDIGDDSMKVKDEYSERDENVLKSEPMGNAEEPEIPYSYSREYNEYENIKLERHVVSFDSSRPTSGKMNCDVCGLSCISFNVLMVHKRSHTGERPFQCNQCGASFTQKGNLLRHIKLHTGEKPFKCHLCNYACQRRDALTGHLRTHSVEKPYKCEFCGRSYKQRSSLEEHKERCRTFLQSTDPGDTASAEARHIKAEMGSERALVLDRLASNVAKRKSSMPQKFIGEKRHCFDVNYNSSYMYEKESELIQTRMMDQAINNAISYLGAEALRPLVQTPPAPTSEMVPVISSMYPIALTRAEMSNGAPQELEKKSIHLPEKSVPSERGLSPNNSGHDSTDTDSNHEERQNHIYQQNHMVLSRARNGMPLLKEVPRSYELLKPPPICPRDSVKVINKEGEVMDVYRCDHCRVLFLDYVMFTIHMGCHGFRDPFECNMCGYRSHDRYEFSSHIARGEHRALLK
Aiolos, sequence (Q96SW2 whole entry): as the sequence (Q96SW2 whole entry) above
Aiolos, sequence (Q16531 whole entry partner): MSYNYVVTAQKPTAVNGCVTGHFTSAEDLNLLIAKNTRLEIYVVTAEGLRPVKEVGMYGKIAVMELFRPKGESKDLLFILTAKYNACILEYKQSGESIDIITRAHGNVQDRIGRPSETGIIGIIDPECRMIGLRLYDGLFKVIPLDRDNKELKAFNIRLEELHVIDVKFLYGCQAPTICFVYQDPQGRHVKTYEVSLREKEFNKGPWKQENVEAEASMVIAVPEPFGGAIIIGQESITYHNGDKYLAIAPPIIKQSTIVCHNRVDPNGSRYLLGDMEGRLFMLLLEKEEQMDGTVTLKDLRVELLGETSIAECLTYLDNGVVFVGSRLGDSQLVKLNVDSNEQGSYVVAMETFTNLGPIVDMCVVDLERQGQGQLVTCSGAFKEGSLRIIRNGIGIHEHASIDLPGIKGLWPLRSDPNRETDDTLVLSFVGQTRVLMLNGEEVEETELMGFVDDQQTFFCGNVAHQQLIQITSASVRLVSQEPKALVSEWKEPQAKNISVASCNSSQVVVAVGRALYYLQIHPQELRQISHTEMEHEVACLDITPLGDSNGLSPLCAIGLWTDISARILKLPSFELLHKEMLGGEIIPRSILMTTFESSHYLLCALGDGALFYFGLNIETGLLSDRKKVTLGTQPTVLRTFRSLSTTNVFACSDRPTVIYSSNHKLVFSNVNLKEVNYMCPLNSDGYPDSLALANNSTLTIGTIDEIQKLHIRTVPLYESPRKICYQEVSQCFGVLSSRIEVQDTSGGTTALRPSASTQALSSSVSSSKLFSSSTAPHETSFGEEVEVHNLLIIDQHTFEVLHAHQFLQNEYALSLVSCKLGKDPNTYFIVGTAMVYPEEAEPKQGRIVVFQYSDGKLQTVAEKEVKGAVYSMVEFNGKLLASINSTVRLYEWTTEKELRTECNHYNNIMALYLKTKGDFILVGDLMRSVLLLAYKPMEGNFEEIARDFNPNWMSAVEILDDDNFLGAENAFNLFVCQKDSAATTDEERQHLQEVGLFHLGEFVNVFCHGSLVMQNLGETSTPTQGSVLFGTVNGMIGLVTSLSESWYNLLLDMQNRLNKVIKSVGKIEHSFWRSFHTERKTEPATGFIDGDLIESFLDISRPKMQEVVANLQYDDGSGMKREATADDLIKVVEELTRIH

Row | Compound | Dmax (Aiolos; MM1.S, read-out: Dmax (maximal degradation achieved), Aiolos) | Kd (CRBN) | IC50 (MM1S cells) | Dmax (maximal degradation achieved), Aiolos (Aiolos) | fold less affinity for CRBN than Pomalidomide and Compound 19 (CRBN; compared with Pomalidomide and Compound 19)
1 | Nc1cccc2c1C(=O)N(C1CCC(=O)NC1=O)C2=O (centres unmarked) [Compound 13, Pomalidomide, reference compound] | > 95% |  |  |  | 
2 | Cc1cccc2c1C(=O)N(C1CCC(=O)NC1=O)C2=O (centres unmarked) [Compound 19] |  | 325 ± 24 nM | 128 nM | 85% | 
3 | O=C1CCC(N2C(=O)c3cccc(F)c3C2=O)C(=O)N1 (centres unmarked) [Compound 17] |  | 558 ± 51 nM | 3570 nM | 83% | roughly 2 fold
